In US5283255A, “Wavelength-specific cytotoxic agents” (The University of British Columbia, priority 1992, dated 1994):
In brackets after ≈: the same amount, converted by molar mass. Like-named read-outs stand apart in the source and are kept apart here.

Tests used:
P815 cells = assay: Selective binding of green porphyrin: kill of labeled P815 cells; type: cell-based, murine; details: Mus musculus, P815, 0.5 h; labeled in dark 30 minutes, washed, 300-750 nm light 30 minutes; read-out: concentration at which 50% of the P815 cells were destroyed
Protocol: P815 cells were incubated as described in Example 1 using 1-200 ng/ml Hp or Gp. The Gp was BPD-DB of FIG. 2 wherein R^1 and R^2 are carboethoxy. The cells were labeled in the dark for 30 minutes, washed free of unabsorbed porphyrins, resuspended, and then exposed to 300-750 nm light for another 30 minutes. Viability of the cells was established by tritiated thymidine incorporation after labeling with 20 μCi/ml tritiated thymidine and incubating at 37° C. for 18 hours.

[1] = In vivo cytotoxicity of Gp versus Hp conjugates (CAMAL-1 and anti-M1 procedures); details: at appropriate wavelengths
Protocol: The efficacy of the conjugates and of the Gp compounds of the invention in vivo is also assessed. For the CAMAL-1 and anti-Ml conjugates, the procedures are as described in the two Mew et al. papers referenced above in Example 4.

KG-1 = assay: In vitro photosensitization, kill of KG-1 cells; type: cell-based; details: Homo sapiens, read-out: LD50 (the source's name)
Protocol: (§1) Target cells were washed three times in serum-free medium (DME), counted and made up to a concentration of 10^7 cells per ml.
(§2) For the "affinity" assay, in the dark, 100 μl of the target cell suspension and 100 μl of the test or control compound were mixed. "Labeling" was allowed to continue for one hour at 4° C., and labeled cells were washed in the dark three times with 3 ml medium each time and resuspended in fresh medium. The resuspended cells were then subjected to light exposure at 300-750 nanometers for 30 minutes.
(§3) In a "direct" assay the target cells were irradiated immediately upon addition of the test or control compound.
(§4) The effect of irradiation was estimated using methods appropriate to the target cells.
(§5) The results of each determination on a variety of cells is shown in Table 1 (LD50 in the concentration of compound required to kill 50% of the cell population.)

[2] = system: murine mastocytoma cell line P815; assay: In vitro photosensitization, kill of P815 cells; type: cell-based; details: Mus musculus; for EC50: P815, 0.5 h, 300-750 nm light for 30 minutes, read-out: concentration at which fifty percent of the P815 cells were killed; for IC50: P815, read-out: LD50 (the source's name)
Protocol: as §1, §2, §3
When the murine mastocytoma cell line P815 was used, the results were determined as follows:
The cells were labeled as above using concentration of 10-50 ng/ml of Hp as control and the BPD-DB as the test substance. The resuspended cells were treated with 300-750 nm light for 30 minutes and the viability resulting was estimated by direct counting using eosin-Y exclusion, a standard procedure for differentiating living from dead cells.
In other determinations conducted as above, the cells recovered from light exposure were assayed for viability by incubating them for 18 hours in 10 μCi/ml tritium-labeled thymidine according to the standard procedure whereby thymidine incorporation is equated with viability. The cells were harvested and radioactivity uptake was measured by a scintillation counter.
as §5

Normal lymphocytes = assay: In vitro photosensitization, kill of normal lymphocytes; type: cell-based; details: Lymphocyte, read-out: LD50 (the source's name)
Protocol: as §1, §2, §3, §4, §5

K562 = assay: In vitro photosensitization, kill of K562 cells; type: cell-based; details: Homo sapiens, read-out: LD50 (the source's name)
Protocol: as §1, §2, §3, §4, §5

[3] = system: human erythrocytes (RBCS); assay: In vitro photosensitization: hemolysis of human erythrocytes after irradiation; type: cell-based; details: Erythrocyte, 0.5 h, light 300-750 nm, 30 minutes, read-out: concentration required to obtain 50% hemolysis
Protocol: as §1, §2
When human erythrocytes (RBCS) were used as target cells, the hemolysis caused by irradiation of control (hematoporphyrin, Hp) labeled and green porphyrin (Gp) labeled cells were estimated visually. The Gp used in this Example was the BPD-DB of FIG. 2 wherein R^1 and R^2 are carboethoxy. […] Thus, a concentration of 250 ng/ml Hp was required under the above conditions to obtain 50% hemolysis while only 10 ng/ml of green porphyrin was required to hemolyze 50% of the RBCs.

HL-60 = assay: In vitro photosensitization, kill of HL-60 cells; type: cell-based; details: Homo sapiens, read-out: LD50 (the source's name)
Protocol: as §1, §2, §3, §4, §5

tumor and normal tissues = details: mouse, in vivo
From the text: Biodistribution studies have been conducted using tritiated BPD-MA and BPD-MB.

P815 tumors = assay: In vivo cytotoxicity of immunoconjugates, P815 tumor-bearing DBA/2 mice
Protocol: The in vivo test relies on the indirect effect of a population of T-suppressor cells on tumors, which then serve as means to assess the effectiveness of the irradiation treatment. P815 mastocytoma cells grown in syngeneic DBA/2 mice stimulate T-suppressor cells specific for the tumor. These T-suppressor cells impede the development of specific T-killer cells which would otherwise aid in the regression of the tumor.
Therefore, in this assay, DBA/2 mice are injected in the right flank subcutaneously with 10^4 P815 cells to incorporate the tumor. On day eight, when the tumors are palpable (approx. 25-42 sq mm) the mice are randomly sorted into groups of eight and injected IV with 150 μl PBS containing nothing, Hp or Gp, B16G-Hp or B16G-Gp, B16G plus either drug, B16G alone or C-MAbHp or C-MAb-Gp. The levels of Hp are 50 Mg per animal in all cases and B16G 310 μg in all cases (where appropriate).
The animals are maintained in the dark for two hours and then exposed to strong light at 300-750 nm and 22.5 mW/cm^2. The animals were then treated normally and monitored on a daily basis.

C=Cc1c(C)c2cc3nc(cc4[nH]c(cc5nc(cc1[nH]2)C1(C)C5=CC=C(C(=O)OCC)C1C(=O)OCC)c(C)c4CCC(=O)O)C(CCC(=O)O)=C3C (stereo not shown) [Gp]
EC50 (P815 cells): 0.006 to 0.02 µg/mL (≈ 0.00819 to 0.0273 µM) | in vivo efficacy of Gp compound alone compared to Hp labeled conjugates [1]: superior results | IC50 (KG-1; KG-1, Affinity test): 0.08 µg/mL | IC50 (KG-1; KG-1, Direct test): 0.163 µg/mL | EC50 [2]: 0.032 µg/mL | IC50 ([2]; P815, Affinity test): 0.026 µg/mL | IC50 ([2]; P815, Direct test): 0.032 µg/mL | IC50 (Normal lymphocytes; Affinity test): 0.011 µg/mL | IC50 (Normal lymphocytes; Direct test): 0.0042 µg/mL | IC50 (K562; K562, Affinity test): 0.033 µg/mL | IC50 (K562; K562, Direct test): 0.07 µg/mL | EC50 [3]: 0.01 µg/mL | IC50 (HL-60; HL-60, Affinity test): 0.0072 µg/mL | IC50 (HL-60; HL-60, Direct test): 0.0035 µg/mL

C=Cc1c(C)c2cc3nc(cc4[nH]c(cc5nc(cc1[nH]2)C(C)=C5CCC(=O)O)c(CCC(=O)OC)c4C)C1(C)C3=CC=C(C(=O)OC)C1C(=O)OC (stereo not shown) [^3 H-BPD-MA]
ratio of concentration in tumor to Blood (tumor and normal tissues; 180 min): 0.52 | ratio of concentration in tumor to Brain (tumor and normal tissues; 180 min): 3.76 | ratio of concentration in tumor to Heart (tumor and normal tissues; 180 min): 1.09 | ratio of concentration in tumor to Intestine (tumor and normal tissues; 180 min): 2.42 | ratio of concentration in tumor to Lung (tumor and normal tissues; 180 min): 0.79 | ratio of concentration in tumor to Muscle (tumor and normal tissues; 180 min): 2.68 | ratio of concentration in tumor to Skin (tumor and normal tissues; 180 min): 2.57 | ratio of concentration in tumor to Stomach (tumor and normal tissues; 180 min): 1.57 | ratio of concentration in tumor to Blood (tumor and normal tissues; 1440 min): 1.45 | ratio of concentration in tumor to Brain (tumor and normal tissues; 1440 min): 3.06 | ratio of concentration in tumor to Heart (tumor and normal tissues; 1440 min): 1.71 | ratio of concentration in tumor to Intestine (tumor and normal tissues; 1440 min): 1.85 | ratio of concentration in tumor to Lung (tumor and normal tissues; 1440 min): 1.55 | ratio of concentration in tumor to Muscle (tumor and normal tissues; 1440 min): 2.98 | ratio of concentration in tumor to Skin (tumor and normal tissues; 1440 min): 1.64 | ratio of concentration in tumor to Stomach (tumor and normal tissues; 1440 min): 1.89 | ratio of concentration in tumor to Blood (tumor and normal tissues; 2880 min): 1.37 | ratio of concentration in tumor to Brain (tumor and normal tissues; 2880 min): 2.92 | ratio of concentration in tumor to Heart (tumor and normal tissues; 2880 min): 1.63 | ratio of concentration in tumor to Intestine (tumor and normal tissues; 2880 min): 1.88 | ratio of concentration in tumor to Lung (tumor and normal tissues; 2880 min): 1.47 | ratio of concentration in tumor to Muscle (tumor and normal tissues; 2880 min): 2.77 | ratio of concentration in tumor to Skin (tumor and normal tissues; 2880 min): 1.95 | ratio of concentration in tumor to Stomach (tumor and normal tissues; 2880 min): 2.08 | ratio of concentration in tumor to Blood (tumor and normal tissues; 4320 min): 1.66 | ratio of concentration in tumor to Brain (tumor and normal tissues; 4320 min): 2.69 | ratio of concentration in tumor to Heart (tumor and normal tissues; 4320 min): 1.46 | ratio of concentration in tumor to Intestine (tumor and normal tissues; 4320 min): 1.48 | ratio of concentration in tumor to Lung (tumor and normal tissues; 4320 min): 1.16 | ratio of concentration in tumor to Muscle (tumor and normal tissues; 4320 min): 2.16 | ratio of concentration in tumor to Skin (tumor and normal tissues; 4320 min): 1.57 | ratio of concentration in tumor to Stomach (tumor and normal tissues; 4320 min): 2.04 | ratio of concentration in tumor to Blood (tumor and normal tissues; 5760 min): 2.77 | ratio of concentration in tumor to Brain (tumor and normal tissues; 5760 min): 4.18 | ratio of concentration in tumor to Heart (tumor and normal tissues; 5760 min): 2.24 | ratio of concentration in tumor to Intestine (tumor and normal tissues; 5760 min): 3.29 | ratio of concentration in tumor to Lung (tumor and normal tissues; 5760 min): 1.63 | ratio of concentration in tumor to Muscle (tumor and normal tissues; 5760 min): 3.45 | ratio of concentration in tumor to Skin (tumor and normal tissues; 5760 min): 2.03 | ratio of concentration in tumor to Stomach (tumor and normal tissues; 5760 min): 2.23 | ratio of concentration in tumor to Blood (tumor and normal tissues; 10080 min): 3.65 | ratio of concentration in tumor to Brain (tumor and normal tissues; 10080 min): 6.91 | ratio of concentration in tumor to Heart (tumor and normal tissues; 10080 min): 2.51 | ratio of concentration in tumor to Intestine (tumor and normal tissues; 10080 min): 2.23 | ratio of concentration in tumor to Lung (tumor and normal tissues; 10080 min): 1.79 | ratio of concentration in tumor to Muscle (tumor and normal tissues; 10080 min): 4.23 | ratio of concentration in tumor to Skin (tumor and normal tissues; 10080 min): 3.51 | ratio of concentration in tumor to Stomach (tumor and normal tissues; 10080 min): 2.98 | Tumor skin ratios, most favorable time (tumor and normal tissues; iv): most favorable 3 hours after IV administration

CC1=C(CCC(=O)O)c2cc3[nH]c(cc4nc(cc5[nH]c(cc1n2)c(C)c5C(C)O)C(C)=C4C(C)O)c(C)c3CCC(=O)O (stereo not shown) [Hp, hematoporphyrin, reference compound]
EC50 (P815 cells): 0.2 µg/mL (≈ 0.334 µM) | IC50 (KG-1; KG-1, Affinity test): 2.35 µg/mL | IC50 (KG-1; KG-1, Direct test): 0.96 µg/mL | % tumor-free after 100 (days) (P815 tumors; Experiment 2): 0% | Mean survival time (P815 tumors; Experiment 2): 21.0 days | No. of cures (P815 tumors; Experiment 2): 0/8 | % tumor-free after 100 (days) (P815 tumors; Experiment 3): 0% | Mean survival time (P815 tumors; Experiment 3): 23.4 days | No. of cures (P815 tumors; Experiment 3): 0/7 | % tumor-free after 100 (days) (P815 tumors; Experiment 4): 0% | Mean survival time (P815 tumors; Experiment 4): 24.2 days | No. of cures (P815 tumors; Experiment 4): 0/8 | % tumor-free after 100 (days) (P815 tumors; Experiment 5): 0% | Mean survival time (P815 tumors; Experiment 5): 27.0 days | No. of cures (P815 tumors; Experiment 5): 0/8 | EC50 [2]: 0.58 µg/mL | IC50 ([2]; P815, Affinity test): 1.3 µg/mL | IC50 ([2]; P815, Direct test): 0.58 µg/mL | IC50 (Normal lymphocytes; Affinity test): 0.1 µg/mL | IC50 (Normal lymphocytes; Direct test): 0.031 µg/mL | IC50 (K562; K562, Affinity test): 2.5 µg/mL | IC50 (K562; K562, Direct test): 0.77 µg/mL | EC50 [3]: 0.25 µg/mL | IC50 (HL-60; HL-60, Affinity test): 0.145 µg/mL | IC50 (HL-60; HL-60, Direct test): 0.064 µg/mL
